Laboratory results taken from patent US10913744B2, “LRRK2 inhibitors and methods of making and using the same” (Dana-Farber Cancer Institute, Inc., priority 2015, dated 2021).
Like-named read-outs stand apart in the source and are kept apart here.

Legend:
JNK3 = JNK3 (Homo sapiens (Human), UniProt P53779); assay: Dundee profiling
wild-type GFP-LRRK2 = wild-type GFP-LRRK2 (Homo sapiens (Human), UniProt Q5S007); assay: Ser910/Ser935 phosphorylation immunoblot in HEK293 cells; assay type: cell-based; settings: 90 min
Description: (§1) FIG. 2A-2D show inhibition of LRRK2 by Compound 18. HEK293 cells stably expressing FIG. 2A: wild-type GFP-LRRK2, FIG. 2B: GFP-LRRK2[G2019S], FIG. 2C: GFP-LRRK2[G2019S+A2016T], and FIG. 2D: GFP-LRRK2[A2016T] were treated with dimethylsulfoxide (DMSO) or increasing concentrations of Compound 18 for 90 min (1 μM of LRRK2-IN-1 was used as a control). Cell lysates were subjected to immunoblotting for detection of LRRK2 phosphorylated at Ser910 and Ser935 and for total LRRK2.
(§2) HEK293 and Swiss 3T3 cells were cultured in DMEM (Dulbecco's Modified Eagle's medium) supplemented with 10% FBS (fetal bovine serum), 2 mM glutamine and 1× penicillin/streptomycin solution. HEK-293 T-Rex cell lines were cultured in DMEM supplemented with 10% (v/v) FBS and 2 mM glutamine, lx penicillin/streptomycin solution, 15 μg/ml blastocidin and 100 μg/ml hygromycin. T-Rex cultures were induced to express the indicated protein by inclusion of 0.1 μg/ml doxycycline in the culture medium for 24-48 hr. […] Protein concentrations were determined following centrifugation of the lysate at 16,000×g at 4° C. for 20 minutes using the Bradford method with BSA as the standard. […]
(§3) As there are no validated direct phosphorylation substrates of LRRK2, phosphorylation of Ser910 and Ser935, two residues whose phosphorylation is known to be dependent upon LRRK2 kinase activity, was monitored.

GFP-LRRK2[G2019S] = GFP-LRRK2[G2019S] (Homo sapiens (Human), UniProt Q5S007, G2019S); assay: as above; assay type: cell-based; settings: 90 min
Description: as §1, §2, §3

MST4 = MST4 (Homo sapiens (Human), UniProt Q9P289); assay: Dundee profiling
MST4, sequence (Q9P289 whole entry, species assumed): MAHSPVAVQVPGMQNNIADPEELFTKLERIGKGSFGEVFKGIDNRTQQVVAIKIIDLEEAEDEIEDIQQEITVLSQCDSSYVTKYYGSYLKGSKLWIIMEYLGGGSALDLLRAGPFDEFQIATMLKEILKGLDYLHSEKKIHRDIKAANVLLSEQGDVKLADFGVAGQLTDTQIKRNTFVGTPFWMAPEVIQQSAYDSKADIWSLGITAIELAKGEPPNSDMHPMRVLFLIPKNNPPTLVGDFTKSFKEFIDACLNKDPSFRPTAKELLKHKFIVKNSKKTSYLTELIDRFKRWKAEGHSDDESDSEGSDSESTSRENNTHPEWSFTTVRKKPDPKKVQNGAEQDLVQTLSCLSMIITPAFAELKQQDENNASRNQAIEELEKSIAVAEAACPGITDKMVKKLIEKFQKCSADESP

SNARK = SNARK (Homo sapiens (Human), UniProt Q9H093); assay: KinomeScan; assay type: binding; settings: 1 uM
ERK8 = ERK8 (Homo sapiens (Human), UniProt Q8TD08); assay: Dundee profiling
ERK8, sequence (Q8TD08 whole entry, looked up, species assumed): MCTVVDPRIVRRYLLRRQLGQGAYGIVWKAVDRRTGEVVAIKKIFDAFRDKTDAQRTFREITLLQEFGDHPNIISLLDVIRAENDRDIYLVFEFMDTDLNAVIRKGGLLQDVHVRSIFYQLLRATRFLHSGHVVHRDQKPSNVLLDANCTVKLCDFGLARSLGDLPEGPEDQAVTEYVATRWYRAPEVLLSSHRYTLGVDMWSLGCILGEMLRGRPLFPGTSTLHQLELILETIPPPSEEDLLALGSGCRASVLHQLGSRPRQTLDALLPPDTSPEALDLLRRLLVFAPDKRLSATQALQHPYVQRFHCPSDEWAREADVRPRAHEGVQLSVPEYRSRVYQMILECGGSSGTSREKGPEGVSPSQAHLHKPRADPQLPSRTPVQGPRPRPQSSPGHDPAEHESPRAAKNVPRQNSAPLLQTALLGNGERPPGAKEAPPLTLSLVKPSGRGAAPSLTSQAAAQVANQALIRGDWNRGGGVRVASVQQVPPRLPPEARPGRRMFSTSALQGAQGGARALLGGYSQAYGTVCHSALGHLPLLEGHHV

CDC2L5 = CDC2L5 (Homo sapiens (Human), UniProt Q14004); assay: KinomeScan; assay type: binding; settings: 1 uM
Text: The kinase selectivity of Compound 18 was further evaluated by KinomeScan.

HIPK3 = HIPK3 (Homo sapiens (Human), UniProt Q9H422); assay: Dundee profiling
HIPK3, sequence (Q9H422 whole entry, looked up, species assumed): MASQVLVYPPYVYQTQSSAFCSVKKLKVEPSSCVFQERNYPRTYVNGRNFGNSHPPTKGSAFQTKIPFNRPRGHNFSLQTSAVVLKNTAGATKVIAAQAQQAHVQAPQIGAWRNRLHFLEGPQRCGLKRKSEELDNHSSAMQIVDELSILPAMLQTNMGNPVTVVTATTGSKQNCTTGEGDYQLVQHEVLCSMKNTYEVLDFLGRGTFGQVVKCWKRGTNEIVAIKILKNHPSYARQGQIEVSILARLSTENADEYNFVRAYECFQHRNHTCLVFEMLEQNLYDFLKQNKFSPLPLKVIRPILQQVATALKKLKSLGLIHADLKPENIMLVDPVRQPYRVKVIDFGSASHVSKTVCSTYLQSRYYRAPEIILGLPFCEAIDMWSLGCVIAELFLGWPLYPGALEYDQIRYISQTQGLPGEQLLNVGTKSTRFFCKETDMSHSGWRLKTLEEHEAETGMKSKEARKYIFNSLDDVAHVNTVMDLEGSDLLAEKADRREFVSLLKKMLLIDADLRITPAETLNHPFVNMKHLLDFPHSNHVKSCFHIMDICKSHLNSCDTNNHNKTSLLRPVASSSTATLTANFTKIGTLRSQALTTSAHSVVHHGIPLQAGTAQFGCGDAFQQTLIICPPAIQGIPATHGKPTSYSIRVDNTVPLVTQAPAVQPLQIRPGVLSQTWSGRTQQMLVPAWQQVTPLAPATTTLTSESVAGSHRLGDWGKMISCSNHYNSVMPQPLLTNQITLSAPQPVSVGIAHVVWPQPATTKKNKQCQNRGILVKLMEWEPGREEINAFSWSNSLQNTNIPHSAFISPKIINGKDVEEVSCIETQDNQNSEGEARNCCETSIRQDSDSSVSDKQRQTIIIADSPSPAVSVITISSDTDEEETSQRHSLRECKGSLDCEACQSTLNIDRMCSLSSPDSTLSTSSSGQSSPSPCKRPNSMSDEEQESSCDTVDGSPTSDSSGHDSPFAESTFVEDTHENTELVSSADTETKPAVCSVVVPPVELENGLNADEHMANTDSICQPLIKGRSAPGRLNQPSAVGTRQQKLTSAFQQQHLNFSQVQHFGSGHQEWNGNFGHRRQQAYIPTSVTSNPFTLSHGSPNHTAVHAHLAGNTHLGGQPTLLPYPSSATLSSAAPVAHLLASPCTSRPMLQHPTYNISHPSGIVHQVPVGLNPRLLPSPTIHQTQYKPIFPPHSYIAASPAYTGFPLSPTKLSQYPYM

EGFR (S752-I759del) = EGFR (S752-I759del) (Homo sapiens (Human), UniProt P00533, DEL752-759); assay: KinomeScan; assay type: binding; settings: 1 uM
EGFR (L861Q) = EGFR (L861Q) (Homo sapiens (Human), UniProt P00533, L861Q); assay: KinomeScan; assay type: binding; settings: 1 uM
ITK = ITK (Homo sapiens (Human), UniProt Q08881); assay: KinomeScan; assay type: binding; settings: 1 uM
SIK2 = SIK2 (Homo sapiens (Human), UniProt Q9H0K1); assay: Dundee profiling
SIK2, sequence (Q9H0K1 whole entry, looked up, species assumed): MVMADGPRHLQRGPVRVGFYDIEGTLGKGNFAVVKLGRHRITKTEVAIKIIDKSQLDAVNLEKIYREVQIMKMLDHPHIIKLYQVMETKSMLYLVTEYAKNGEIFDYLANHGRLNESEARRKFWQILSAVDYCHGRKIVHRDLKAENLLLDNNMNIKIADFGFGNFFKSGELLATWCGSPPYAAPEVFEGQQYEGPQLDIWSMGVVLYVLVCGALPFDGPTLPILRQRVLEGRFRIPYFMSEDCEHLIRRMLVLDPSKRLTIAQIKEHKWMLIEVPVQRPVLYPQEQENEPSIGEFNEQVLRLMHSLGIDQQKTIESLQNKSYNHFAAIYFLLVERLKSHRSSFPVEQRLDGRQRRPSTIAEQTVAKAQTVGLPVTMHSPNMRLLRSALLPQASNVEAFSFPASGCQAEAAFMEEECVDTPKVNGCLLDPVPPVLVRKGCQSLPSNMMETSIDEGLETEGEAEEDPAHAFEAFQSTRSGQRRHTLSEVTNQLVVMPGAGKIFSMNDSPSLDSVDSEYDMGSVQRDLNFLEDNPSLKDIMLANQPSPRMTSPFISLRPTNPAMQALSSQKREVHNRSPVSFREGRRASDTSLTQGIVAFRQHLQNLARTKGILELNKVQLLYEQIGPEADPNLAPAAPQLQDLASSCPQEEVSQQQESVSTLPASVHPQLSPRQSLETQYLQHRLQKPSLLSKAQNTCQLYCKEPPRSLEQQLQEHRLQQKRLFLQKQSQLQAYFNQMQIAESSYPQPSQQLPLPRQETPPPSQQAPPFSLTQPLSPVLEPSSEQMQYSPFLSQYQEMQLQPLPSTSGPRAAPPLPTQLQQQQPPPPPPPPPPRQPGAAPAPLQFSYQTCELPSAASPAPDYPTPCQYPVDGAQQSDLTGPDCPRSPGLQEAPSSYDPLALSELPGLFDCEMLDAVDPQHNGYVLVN

PRAK = PRAK (Homo sapiens (Human), UniProt Q8IW41); assay: Dundee profiling
PRAK, sequence (Q8IW41 whole entry, species assumed): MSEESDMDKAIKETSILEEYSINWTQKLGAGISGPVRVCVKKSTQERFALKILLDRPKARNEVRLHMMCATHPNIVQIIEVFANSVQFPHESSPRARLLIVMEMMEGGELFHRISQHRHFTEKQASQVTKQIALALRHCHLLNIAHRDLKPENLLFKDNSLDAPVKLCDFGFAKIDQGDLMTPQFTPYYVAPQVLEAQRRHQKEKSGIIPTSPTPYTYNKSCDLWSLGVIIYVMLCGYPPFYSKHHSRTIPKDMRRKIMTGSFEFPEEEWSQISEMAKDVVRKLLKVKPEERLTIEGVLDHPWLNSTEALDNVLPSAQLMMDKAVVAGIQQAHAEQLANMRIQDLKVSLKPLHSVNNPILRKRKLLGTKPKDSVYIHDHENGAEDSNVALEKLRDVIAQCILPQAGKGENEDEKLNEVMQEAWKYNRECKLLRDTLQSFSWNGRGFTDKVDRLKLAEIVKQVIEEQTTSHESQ

EPHB2 = EPHB2 (Homo sapiens (Human), UniProt P29323); assay: KinomeScan; assay type: binding; settings: 1 uM
EPHA5 = EPHA5 (Homo sapiens (Human), UniProt P54756); assay: KinomeScan; assay type: binding; settings: 1 uM
ERK1 = ERK1 (Homo sapiens (Human), UniProt P27361); assay: Dundee profiling
ERK1, sequence (P27361 whole entry, looked up, species assumed): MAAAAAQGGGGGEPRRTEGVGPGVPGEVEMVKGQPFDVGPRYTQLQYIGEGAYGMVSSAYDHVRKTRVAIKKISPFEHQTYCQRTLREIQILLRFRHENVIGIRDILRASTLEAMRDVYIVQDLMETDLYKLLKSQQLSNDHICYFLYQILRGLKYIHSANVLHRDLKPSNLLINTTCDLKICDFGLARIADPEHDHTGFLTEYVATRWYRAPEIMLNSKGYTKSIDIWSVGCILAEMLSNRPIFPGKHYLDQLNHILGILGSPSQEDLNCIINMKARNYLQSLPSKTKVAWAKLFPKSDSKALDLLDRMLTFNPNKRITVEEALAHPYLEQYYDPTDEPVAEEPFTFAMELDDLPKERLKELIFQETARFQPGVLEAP

[1] = target: TYK2 (JH2domain-pseudokinase) (Homo sapiens (Human), UniProt P29597); assay: KinomeScan; assay type: binding; settings: 1 uM
PKBb = PKBb (Homo sapiens (Human), UniProt P31751); assay: Dundee profiling
TAK1 = TAK1 (Homo sapiens (Human), UniProt O43318); assay: Dundee profiling
TAK1, sequence (O43318 whole entry, looked up): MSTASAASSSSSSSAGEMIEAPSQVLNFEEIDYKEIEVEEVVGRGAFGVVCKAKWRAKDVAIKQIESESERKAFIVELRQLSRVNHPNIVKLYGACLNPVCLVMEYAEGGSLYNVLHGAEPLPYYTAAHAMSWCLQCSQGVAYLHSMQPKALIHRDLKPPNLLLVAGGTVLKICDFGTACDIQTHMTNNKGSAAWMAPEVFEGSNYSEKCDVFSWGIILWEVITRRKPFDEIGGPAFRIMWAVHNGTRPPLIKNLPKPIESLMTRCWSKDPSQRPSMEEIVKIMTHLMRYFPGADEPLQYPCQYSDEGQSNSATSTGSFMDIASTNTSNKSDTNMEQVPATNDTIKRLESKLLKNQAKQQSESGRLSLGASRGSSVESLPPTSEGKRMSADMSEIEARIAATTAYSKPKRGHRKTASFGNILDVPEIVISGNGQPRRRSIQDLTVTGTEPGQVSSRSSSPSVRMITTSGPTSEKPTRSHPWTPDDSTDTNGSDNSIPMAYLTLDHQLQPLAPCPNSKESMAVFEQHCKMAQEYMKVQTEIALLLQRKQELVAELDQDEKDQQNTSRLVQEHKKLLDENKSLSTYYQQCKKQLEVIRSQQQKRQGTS

[2] = read-out: percent remaining enzymatic activity, I1, 1 μM
[3] = read-out: percent remaining enzymatic activity, I10

JNK3, sequence (P53779 whole entry, species assumed): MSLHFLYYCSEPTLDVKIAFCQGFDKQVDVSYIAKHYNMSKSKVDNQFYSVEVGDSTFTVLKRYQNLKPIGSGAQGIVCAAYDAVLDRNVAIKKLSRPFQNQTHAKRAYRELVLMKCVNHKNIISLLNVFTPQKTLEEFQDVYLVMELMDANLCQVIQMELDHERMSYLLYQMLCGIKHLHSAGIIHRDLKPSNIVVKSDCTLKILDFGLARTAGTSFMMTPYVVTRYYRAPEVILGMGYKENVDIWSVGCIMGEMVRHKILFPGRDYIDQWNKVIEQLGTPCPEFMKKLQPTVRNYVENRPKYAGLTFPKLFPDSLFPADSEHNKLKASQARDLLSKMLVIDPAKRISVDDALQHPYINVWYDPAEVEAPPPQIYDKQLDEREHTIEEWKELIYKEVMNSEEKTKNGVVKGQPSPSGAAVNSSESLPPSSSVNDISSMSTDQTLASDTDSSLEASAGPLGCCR

## CNc1nc(Nc2ccc(C(=O)N3CCOCC3)cc2OC)nc2[nH]cc(Cl)c12 [Compound 18, (4-((5-chloro-4-(methylamino)-7H-pyrrolo[2,3-d]pyrimidin-2-yl)amino)-3-methoxyphenyl)(morpholino)methanone]
JNK3; I10
  percent remaining enzymatic activity: 9%
JNK3; read-out: percent remaining enzymatic activity
  remaining activity at 1 µM: 29%
wild-type GFP-LRRK2
  concentration giving substantial dephosphorylation of Ser910 and Ser935: approximately 0.3
GFP-LRRK2[G2019S]
  concentration giving substantial dephosphorylation of Ser910 and Ser935: approximately 0.3
MST4; [2]
  remaining activity at 1 µM: 103%
MST4; [3]
  remaining activity at 1 µM: 97%
SNARK
  KinomeScan value: 100
ERK8; [2]
  remaining activity at 1 µM: 108%
ERK8; [3]
  remaining activity at 1 µM: 71%
CDC2L5
  KinomeScan value: 100
HIPK3; [2]
  remaining activity at 1 µM: 106%
HIPK3; [3]
  remaining activity at 1 µM: 93%
EGFR (S752-I759del)
  KinomeScan value: 97
EGFR (L861Q)
  KinomeScan value: 57
ITK
  KinomeScan value: 88
SIK2; [2]
  remaining activity at 1 µM: 109%
SIK2; [3]
  remaining activity at 1 µM: 92%
PRAK; [2]
  remaining activity at 1 µM: 43%
PRAK; [3]
  remaining activity at 1 µM: 6%
EPHB2
  KinomeScan value: 98
EPHA5
  KinomeScan value: 98
ERK1; [2]
  remaining activity at 1 µM: 107%
ERK1; [3]
  remaining activity at 1 µM: 68%
[1]
  KinomeScan value: 100
PKBb; [2]
  remaining activity at 1 µM: 118%
PKBb; [3]
  remaining activity at 1 µM: 103%
TAK1; [2]
  remaining activity at 1 µM: 96%
TAK1; [3]
  remaining activity at 1 µM: 42%
